Measured values from PMC4139342, “Pharmacokinetics-Pharmacodynamics Analysis of Bicyclic 4-Nitroimidazole Analogs in a Murine Model of Tuberculosis” (PLoS ONE, 2014).
≈ marks a conversion by molar mass, not a printed value. Read-outs that look alike come from different tables or passages of the source.

How the values were obtained:
physchem [1] = assay: physchem
in vivo [2] = settings: female, CD-1, mouse, iv; for clearance: i.v. CL
in vitro [3] = settings: human, Caco-2
[4] = female, CD-1, mouse, in vivo, po, 25 mg/kg
[5] = system: M. tuberculosis (Mtb) (H37Rv, ATCC 27294); assay: microbe, parasite or virus in culture; format: cell-based; settings: Mycobacterium tuberculosis
[6] = In vivo plasma PK after intravenous dosing; settings: female, CD-1, mouse, plasma, iv, T1/2 (i.v), mice
[7] = female, CD-1, mouse, in vivo, po
[8] = In vivo lung PK after oral dosing; settings: female, CD-1, mouse
in vivo [9] = settings: female, CD-1, mouse, po
in vitro [10] = settings: mouse, plasma
in vivo [11] = settings: female, CD-1, mouse, po; remark: listed apart in the source
[12] = In vivo plasma PK after oral dosing in CM-2 formulation; settings: female, CD-1, mouse, plasma, po
physchem [13] = settings: pH 6.8, aqueous buffer, thermodynamic from solid
Mtb H37Rv = assay: In vivo mouse efficacy, established murine TB model; set-up: species or system Balb/c mice; settings: for Mean log lung CFU ± SEM / log reduction at 25 mg/kg / log reduction at 100 mg/kg: 5 animals; for Efficacy compared with PA-824, in words: significance at P<0.05; for Dose dependence of efficacy, in words: 25 versus 100 mg/kg oral daily for 4 weeks; for log reduction at 25 mg/kg / log reduction at 100 mg/kg: Mycobacterium tuberculosis, H37RV, po, 672 h, read-out: Mean log lung CFU reduction ± SEM compared to untreated controls
Description: In vivo mouse efficacy studies were determined after intranasal infection of Balb/c mice with 10^3 cfu Mtb H37Rv. Treatment was initiated 4 weeks after infection. Compounds were orally administered in CM-2 formulation for 4 weeks daily. Bacterial loads were determined at 2 and 4 weeks post treatment. Statistical analysis was done by a one-way analysis of variance, followed by a multiple comparison analysis of variance by a one-way Tukey test (GraphPad Prism, version 5.02, San Diago, California USA, www.graphpad.com). Differences were considered statistically significant at the 95% level of confidence.

[14] = Cytotoxicity against THP1 macrophage cell lines; format: cell-based; settings: human
[15] = 5 mg/kg, i.v. dosing at 5 mg/kg
[16] = 25 mg/kg, Lung to Plasma ratio AUC24
[17] = 25 mg/kg, Lung to Plasma ratio Cmax
[18] = 25 mg/kg oral daily for 4 weeks
[19] = 100 mg/kg oral daily for 4 weeks

With `CC[C@H]1Oc2nc([N+](=O)[O-])cn2C[C@@H]1NCc1ccc(OC(F)(F)F)cc1` [NI-182] the logP (physchem [1]) was 3.05, the “PAMPA %FA” value was 99% and the “PAMPA Log Pe” value was “–3.8 cm/sec”. For the same molecule, the Vd (in vivo [2]; 5 mg/kg) was 3 L/kg, the clearance (in vivo [2]; 5 mg/kg) was 15.2 mL/min/kg and the Papp A→B (in vitro [3]) was 18.3 ×10⁻⁶ cm/s. The Papp B→A (in vitro [3]) was 13.9 ×10⁻⁶ cm/s, the efflux ratio (in vitro [3]) was 0.8 and the “Plasma free fCmax” value [4] was 0.3 µg/mL. For the same molecule, the MIC99 [5] was 0.02 µg/mL (≈ 0.0518 µM), the half-life [6, 15] was 2.8 h and the “Lung AUC24” value ([7]; 25 mg/kg) was 73.2 µg·h/g. The “Lung Cmax” value ([7]; 25 mg/kg) was 11.4 µg/g, the half-life ([8]; 25 mg/kg) was 1.9 h and the Tmax (in vivo [9]; 25 mg/kg) was 0.5 h. It also gave a Kp (in vivo [9]; [16]) of 3.3, a Kp (in vivo [9]; [17]) of 3.3 and a fraction unbound (in vitro [10]) of 0.087. The AUC (in vivo [11]; 25 mg/kg) was 22500 ng·h/mL, the Cmax (in vivo [11]; 25 mg/kg) was 3500 ng/mL and the Tmax (in vivo [11]; 25 mg/kg) was 0.5 h. It also gave a bioavailability (in vivo [11]; 25 mg/kg) of 82%, a half-life ([12]; 25 mg/kg) of 2 h and a solubility (physchem [13]) of 32 µg/mL (≈ 82.8 µM). The “Mean log lung CFU ± SEM” value (Mtb H37Rv; [18]) was 4.84±0.14 log CFU, the “Efficacy compared with PA-824, in words” value (Mtb H37Rv; [18]) was “comparable efficacy to PA-824” and the “Mean log lung CFU ± SEM” value (Mtb H37Rv; [19]) was 4.81±0.18 log CFU. The “Efficacy compared with PA-824, in words” value (Mtb H37Rv; [19]) was “significantly (P<0.05) less efficacious than PA-824”, the “Dose dependence of efficacy, in words” value (Mtb H37Rv) was “no dose-dependent increase in bactericidal activity” and the log reduction at 25 mg/kg (Mtb H37Rv; [18]) was 1.23 to 1.56. The log reduction at 100 mg/kg (Mtb H37Rv; [19]) was 1.26 ± 0.18 and the CC50 [14] was greater than 10 µg/mL.
With `CC[C@@H]1Oc2nc([N+](=O)[O-])cn2C[C@@H]1NCc1ccc(OC(F)(F)F)cc1` [NI-269] the logP (physchem [1]) was 3.15, the “PAMPA %FA” value was 99% and the “PAMPA Log Pe” value was “–3.7 cm/sec”. The Vd (in vivo [2]; 5 mg/kg) was 2.6 L/kg, the clearance (in vivo [2]; 5 mg/kg) was 19.7 mL/min/kg and the MIC99 [5] was 0.03 µg/mL (≈ 0.0777 µM). The half-life [6, 15] was 2.1 h, the “Lung AUC24” value ([7]; 25 mg/kg) was 27.5 µg·h/g and the “Lung Cmax” value ([7]; 25 mg/kg) was 5.4 µg/g. It also gave a half-life ([8]; 25 mg/kg) of 2.7 h, a Tmax (in vivo [9]; 25 mg/kg) of 0.3 h and a Kp (in vivo [9]; [16]) of 1.7. It also gave a Kp (in vivo [9]; [17]) of 1.9, an AUC (in vivo [11]; 25 mg/kg) of 16000 ng·h/mL and a Cmax (in vivo [11]; 25 mg/kg) of 2800 ng/mL. For the same molecule, the Tmax (in vivo [11]; 25 mg/kg) was 0.3 h, the bioavailability (in vivo [11]; 25 mg/kg) was 88% and the half-life ([12]; 25 mg/kg) was 3.8 h. It also gave a solubility (physchem [13]) of 12 µg/mL (≈ 31.1 µM) and a CC50 [14] greater than 10 µg/mL.
In the case of `CC[C@H]1Oc2nc([N+](=O)[O-])cn2C[C@@H]1NCc1ccc(-c2ccc(OC(F)(F)F)cc2)cc1` [NI-297], the logP (physchem [1]) is reported as 6, the “PAMPA %FA” value is reported as 97% and the “PAMPA Log Pe” value is reported as “–4.1 cm/sec”. The Vd (in vivo [2]; 5 mg/kg) was 2.6 L/kg, the clearance (in vivo [2]; 5 mg/kg) was 5 mL/min/kg and the “Plasma free fCmax” value [4] was 0.1 µg/mL. The MIC99 [5] was 0.02 µg/mL (≈ 0.0432 µM), the half-life [6, 15] was 6.7 h and the “Lung AUC24” value ([7]; 25 mg/kg) was 233.4 µg·h/g. For the same molecule, the “Lung Cmax” value ([7]; 25 mg/kg) was 16.3 µg/g, the half-life ([8]; 25 mg/kg) was 4.6 h and the Tmax (in vivo [9]; 25 mg/kg) was 8 h. The Kp (in vivo [9]; [16]) was 2.4, the Kp (in vivo [9]; [17]) was 2.7 and the fraction unbound (in vitro [10]) was 0.018. It also gave an AUC (in vivo [11]; 25 mg/kg) of 99100 ng·h/mL, a Cmax (in vivo [11]; 25 mg/kg) of 6000 ng/mL and a Tmax (in vivo [11]; 25 mg/kg) of 8 h. The bioavailability (in vivo [11]; 25 mg/kg) was 100%, the half-life ([12]; 25 mg/kg) was 4.9 h and the solubility (physchem [13]) was less than 2 µg/mL. For the same molecule, the “Mean log lung CFU ± SEM” value (Mtb H37Rv; [18]) was 4.51±0.11 log CFU, the “Efficacy compared with PA-824, in words” value (Mtb H37Rv; [18]) was “comparable efficacy to PA-824” and the log reduction at 25 mg/kg (Mtb H37Rv; [18]) was 1.23 to 1.56. For the same molecule, the CC50 [14] was greater than 10 µg/mL.
For `O=C(CO[C@@H]1COc2nc([N+](=O)[O-])cn2C1)N1CCN(c2ccc(OC(F)(F)F)cc2)CC1` [NI-622], the logP (physchem [1]) was 2.9, the “PAMPA %FA” value was 31% and the “PAMPA Log Pe” value was “–5.3 cm/sec”. It also gave a Vd (in vivo [2]; 10 mg/kg) of 1.8 L/kg, a clearance (in vivo [2]; 10 mg/kg) of 14.7 mL/min/kg and a Papp A→B (in vitro [3]) of 9.5 ×10⁻⁶ cm/s. It also gave a Papp B→A (in vitro [3]) of 12.4 ×10⁻⁶ cm/s, an efflux ratio (in vitro [3]) of 1.3 and an MIC99 [5] of 0.18 µg/mL (≈ 0.382 µM). For the same molecule, the half-life ([6]; 10 mg/kg, i.v. dosing at 10 mg/kg) was 1.8 h, the “Lung AUC24” value ([7]; 50 mg/kg) was 71.1 µg·h/g and the “Lung Cmax” value ([7]; 50 mg/kg) was 10.2 µg/g. For the same molecule, the half-life ([8]; 50 mg/kg) was 1.8 h, the Kp (in vivo [9]; 50 mg/kg, Lung to Plasma ratio AUC24) was 0.7 and the Kp (in vivo [9]; 50 mg/kg, Lung to Plasma ratio Cmax) was 0.7. For the same molecule, the fraction unbound (in vitro [10]) was 0.03, the AUC (in vivo [11]; 50 mg/kg) was 108000 ng·h/mL and the Cmax (in vivo [11]; 50 mg/kg) was 14800 ng/mL. The bioavailability (in vivo [11]; 50 mg/kg) was 100%, the half-life ([12]; 50 mg/kg) was 2.1 h and the solubility (physchem [13]) was 28.2 µg/mL (≈ 59.8 µM). The “Mean log lung CFU ± SEM” value (Mtb H37Rv; [18]) was 5.77±0.08 log CFU, the “Efficacy compared with PA-824, in words” value (Mtb H37Rv; [18]) was “significantly (P<0.05) less efficacious than PA-824” and the “Mean log lung CFU ± SEM” value (Mtb H37Rv; [19]) was 5.85±0.11 log CFU. The “Efficacy compared with PA-824, in words” value (Mtb H37Rv; [19]) was “significantly (P<0.05) less efficacious than PA-824”, the “Dose dependence of efficacy, in words” value (Mtb H37Rv) was “no dose-dependent increase in bactericidal activity” and the log reduction at 25 mg/kg (Mtb H37Rv; [18]) was 0.48 to 0.89. It also gave a log reduction at 100 mg/kg (Mtb H37Rv; [19]) of 0.81 ± 0.11 and a CC50 [14] greater than 10 µg/mL.
Work on `COc1ccc(C[C@H](N)C(=O)N[C@H]2[C@@H](O)[C@H](n3cnc4c(N(C)C)ncnc43)O[C@@H]2CO)cc1` [Puromycin, reference compound] yielded a CC50 ([14]; THP1 macrophage cell lines, read-out: Cytotoxicity CC50) of 1.4 µg/mL (≈ 2.97 µM).
